In patent publication US11629171B2, “Beta-hairpin peptidomimetics” (POLYPHOR AG, priority 2017, dated 2023):
Values after ≈ are worked out from the molar mass of the structure shown. Where a SMILES comes first, the peptide text is derived from it. Bridges are numbered along the chain shown (N, C = ends). Roman numbers before positions name the chains, in order. [ ]: non-standard residue; d: D form. The star is where a group is joined. Leu(3R-OH) = CC(C)[C@@H](O)[C@H](N)C(=O)O; Heptanoyl(6-Me) = CC(C)CCCCC(=O)*; Pen = CC(C)(S)[C@H](N)C(=O)O; Tle = CC(C)(C)[C@H](N)C(=O)O; Isovaleryl = CC(C)CC(=O)*; dDab = NCC[C@@H](N)C(=O)O; hSer = N[C@@H](CCO)C(=O)O; Dab = NCC[C@H](N)C(=O)O; Dap = NC[C@H](N)C(=O)O; NHCH2CH2OH = OCCN*

Columns and labels:
Format in all cases: cell-based
[1] = tested on: Acinetobacter baumannii 872842; details: 872842
In short: (§1)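 MIC in μg/mL, read as no visible growth after 18-20 hours at 35° C. Peptides were serially diluted two-fold in MH-II broth plus P-80 (0.002% final, v/v) and inoculated at about 10^6 CFU/mL following the CLSI broth microdilution standard.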

[2] = tested on: Acinetobacter baumannii DSM 30008; details: DSM 30008
In short: as §1

[3] = tested on: Enterobacter cloacae 848840; details: 848840
In short: as §1

[4] = tested on: Escherichia coli 926415; details: 926415
In short: as §1

[5] = tested on: Escherichia coli ATCC 25922; details: ATCC 25922
In short: as §1

[6] = tested on: Klebsiella pneumoniae 968733; details: 968733
In short: as §1

[7] = tested on: Klebsiella pneumoniae SSI #3010; details: SSI #3010
In short: as §1

[8] = tested on: Pseudomonas aeruginosa ATCC 27853; details: ATCC 27853
In short: as §1

[9] = tested on: human red blood cells (hRBC); assay: Hemolysis; details: red cells of human, 1 h, 200
In short: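 First, fresh human erythrocytes are washed in PBS; next, they are incubated at 20% (v/v) with compound at 200 μg/mL for 1 h at 37° C. Finally, centrifuged supernatants are diluted and OD540 is taken relative to the Triton X-100 lysis control.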

Row | SMILES | MIC [1] [µg/mL] | MIC [2] [µg/mL] | MIC [3] [µg/mL] | MIC [4] [µg/mL] | MIC [5] [µg/mL] | MIC [6] [µg/mL] | MIC [7] [µg/mL] | MIC [8] [µg/mL] | Hemolysis at 200 μg/mL [9] [%] | Acinetobacter baumannii DSM 30008 MIC [2] [µg/mL] | Escherichia coli ATCC 25922 MIC [5] [µg/mL] | Klebsiella pneumoniae SSI #3010 MIC [7] [µg/mL] | Pseudomonas aeruginosa ATCC 27853 MIC [8] [µg/mL]
1 | CC(C)CCCCC(=O)N[C@H](C(=O)N[C@H]1CSSC[C@@H](C(=O)N[C@@H](CO)C(N)=O)NC(=O)[C@H](C(C)C)NC(=O)[C@H](CCO)NC(=O)[C@H](Cc2c[nH]c3ccccc23)NC(=O)[C@H](CCO)NC(=O)[C@@H](CCN)NC(=O)[C@H](CCC(=O)N[C@@H](CCN)C(=O)N[C@H](C(=O)N[C@@H](CCN)C(=O)N[C@H]2CCNC(=O)[C@H]([C@@H](C)O)NC(=O)[C@H](CCN)NC(=O)[C@H](CCN)NC(=O)[C@H](CC(C)C)NC(=O)[C@@H](CC(C)C)NC(=O)[C@H](CCN)NC2=O)[C@@H](C)O)NC(=O)[C@H](CCN)NC(=O)[C@H](Cc2ccc(O)cc2)NC1=O)C(C)C [Ex. 40] (I: {Heptanoyl(6-Me)}-VCY[Dab]E[dDab][hSer]W[hSer]VCS-NH2 / II: [Dab]T[Dab][Dab][Dab][dL]L[Dab][Dab]T; disulfide I:2-I:11; amide I:5-II:N; lactam II:4-II:C) | 0.5 (≈ 0.198 µM) | 1 (≈ 0.396 µM) | 0.5 (≈ 0.198 µM) | 1 (≈ 0.396 µM) | 0.125 (≈ 0.0495 µM) | 0.25 (≈ 0.099 µM) | 0.5 (≈ 0.198 µM) | 0.25 (≈ 0.099 µM) | 2 | – | – | – | –
2 | CC(=O)N[C@H](C(=O)N[C@H](C(=O)N[C@@H](Cc1ccc(O)cc1)C(=O)N[C@H]1CSSC(C)(C)[C@@H](C(=O)N[C@H](C(=O)N[C@@H](CCC(=O)O)C(=O)N[C@H](C(N)=O)[C@@H](C)O)C(C)(C)C)NC(=O)[C@H](Cc2c[nH]c3ccccc23)NC(=O)[C@H](CCN)NC(=O)[C@@H](CCN)NC(=O)[C@H](CCC(=O)N[C@@H](CCN)C(=O)N[C@H](C(=O)N[C@@H](CN)C(=O)N[C@H]2CCNC(=O)[C@H]([C@@H](C)O)NC(=O)[C@H](CCN)NC(=O)[C@H](CCN)NC(=O)[C@H]([C@H](O)C(C)C)NC(=O)[C@@H](CC(C)C)NC(=O)[C@H](CCN)NC2=O)[C@@H](C)O)NC1=O)[C@@H](C)O)C(C)C [Ex. 225] (I: Ac-VTYCE[dDab][Dab]W[Pen][Tle]ET-NH2 / II: [Dab]T[Dap][Dab][Dab][dL][Leu(3R-OH)][Dab][Dab]T; disulfide I:4-I:9; amide I:5-II:N; lactam II:4-II:C) | 0.25 (≈ 0.0989 µM) | 0.125 (≈ 0.0495 µM) | 0.125 (≈ 0.0495 µM) | 0.25 (≈ 0.0989 µM) | 0.0625 (≈ 0.0247 µM) | 1 (≈ 0.396 µM) | 0.0625 (≈ 0.0247 µM) | 0.125 (≈ 0.0495 µM) | <1 | – | – | – | –
3 | CC(=O)N[C@H](C(=O)N[C@H]1CSSC[C@@H](C(N)=O)NC(=O)[C@H](C(C)(C)C)NC(=O)[C@H](CO)NC(=O)[C@H](Cc2c[nH]c3ccccc23)NC(=O)[C@H](CO)NC(=O)[C@@H](CCN)NC(=O)[C@H](CCC(=O)N[C@@H](CCN)C(=O)N[C@H](C(=O)N[C@@H](CN)C(=O)N[C@H]2CCNC(=O)[C@H]([C@@H](C)O)NC(=O)[C@H](CCN)NC(=O)[C@H](CCN)NC(=O)[C@H](CC(C)C)NC(=O)[C@@H](CC(C)C)NC(=O)[C@H](CCN)NC2=O)[C@@H](C)O)NC(=O)[C@H](CN)NC(=O)[C@H](Cc2ccc(O)cc2)NC1=O)C(C)C [Example 8] (I: Ac-VCY[Dap]E[dDab]SWS[Tle]C-NH2 / II: [Dab]T[Dap][Dab][Dab][dL]L[Dab][Dab]T; disulfide I:2-I:11; amide I:5-II:N; lactam II:4-II:C) | 0.0625 (≈ 0.027 µM) | 0.125 (≈ 0.0541 µM) | 0.25 (≈ 0.108 µM) | 0.5 (≈ 0.216 µM) | 0.0625 (≈ 0.027 µM) | 0.25 (≈ 0.108 µM) | 0.125 (≈ 0.0541 µM) | 0.125 (≈ 0.0541 µM) | <1 | – | – | – | –
4 | CC(=O)N[C@H](C(=O)N[C@H]1CSSC[C@@H](C(=O)N[C@@H](CO)C(N)=O)NC(=O)[C@H](C(C)C)NC(=O)[C@H](CO)NC(=O)[C@H](Cc2c[nH]c3ccccc23)NC(=O)[C@H](CCN)NC(=O)[C@@H](CCN)NC(=O)[C@H](CCC(=O)N[C@@H](CCN)C(=O)N[C@H](C(=O)N[C@@H](CCN)C(=O)N[C@H]2CCNC(=O)[C@H]([C@@H](C)O)NC(=O)[C@H](CCN)NC(=O)[C@H](CCN)NC(=O)[C@H](CC(C)C)NC(=O)[C@@H](CC(C)C)NC(=O)[C@H](CCN)NC2=O)[C@@H](C)O)NC(=O)[C@H](CO)NC(=O)[C@H](Cc2ccc(O)cc2)NC1=O)C(C)C [Ex. 272] (I: Ac-VCYSE[dDab][Dab]WSVCS-NH2 / II: [Dab]T[Dab][Dab][Dab][dL]L[Dab][Dab]T; disulfide I:2-I:11; amide I:5-II:N; lactam II:4-II:C) | 0.0625 (≈ 0.0259 µM) | 0.0625 (≈ 0.0259 µM) | 0.25 (≈ 0.104 µM) | 0.125 (≈ 0.0518 µM) | 0.0625 (≈ 0.0259 µM) | 0.125 (≈ 0.0518 µM) | 0.0625 (≈ 0.0259 µM) | 0.125 (≈ 0.0518 µM) | <1 | – | – | – | –
5 | CC(=O)N[C@H](C(=O)N[C@H]1CSSC[C@@H](C(=O)N[C@@H](CO)C(N)=O)NC(=O)[C@H](C(C)C)NC(=O)[C@H](CO)NC(=O)[C@H](Cc2c[nH]c3ccccc23)NC(=O)[C@H](CCC(=O)N[C@@H](CCN)C(=O)N[C@H](C(=O)N[C@@H](CN)C(=O)N[C@H]2CCNC(=O)[C@H]([C@@H](C)O)NC(=O)[C@H](CCN)NC(=O)[C@H](CCN)NC(=O)[C@H](CC(C)C)NC(=O)[C@@H](CC(C)C)NC(=O)[C@H](CCN)NC2=O)[C@@H](C)O)NC(=O)[C@@H](CCN)NC(=O)[C@H](CCN)NC(=O)[C@H](CO)NC(=O)[C@H](Cc2ccc(O)cc2)NC1=O)C(C)C [Ex. 356] (I: Ac-VCYS[Dab][dDab]EWSVCS-NH2 / II: [Dab]T[Dap][Dab][Dab][dL]L[Dab][Dab]T; disulfide I:2-I:11; amide I:7-II:N; lactam II:4-II:C) | 0.125 (≈ 0.0521 µM) | – | 0.125 (≈ 0.0521 µM) | 0.25 (≈ 0.104 µM) | – | 0.25 (≈ 0.104 µM) | – | – | 2 | 0.0625 | 0.0625 | 0.0625 | 0.125
6 | CC(C)CC(=O)N[C@H]1CSSC[C@@H](C(=O)NCCO)NC(=O)[C@H](C(C)(C)C)NC(=O)[C@H](CO)NC(=O)[C@H](Cc2c[nH]c3ccccc23)NC(=O)[C@H]([C@@H](C)O)NC(=O)[C@@H](CCN)NC(=O)[C@H](CCC(=O)N[C@@H](CCN)C(=O)N[C@H](C(=O)N[C@@H](CCN)C(=O)N[C@H]2CCNC(=O)[C@H]([C@@H](C)O)NC(=O)[C@H](CCN)NC(=O)[C@H](CCN)NC(=O)[C@H](CC(C)C)NC(=O)[C@@H](CC(C)C)NC(=O)[C@H](CCN)NC2=O)[C@@H](C)O)NC(=O)[C@H](CN)NC(=O)[C@H](Cc2ccc(O)cc2)NC1=O [Example 1] (I: Isovaleryl-CY[Dap]E[dDab]TWS[Tle]C-NHCH2CH2OH / II: [Dab]T[Dab][Dab][Dab][dL]L[Dab][Dab]T; disulfide I:1-I:10; amide I:4-II:N; lactam II:4-II:C) | 1 (≈ 0.43 µM) | 0.125 (≈ 0.0537 µM) | 4 (≈ 1.72 µM) | 1 (≈ 0.43 µM) | 0.125 (≈ 0.0537 µM) | 2 (≈ 0.86 µM) | 0.5 (≈ 0.215 µM) | 0.125 (≈ 0.0537 µM) | <1 | – | – | – | –
7 | CC[C@H](C)[C@@H]1NC(=O)[C@H](CO)NC(=O)[C@H](Cc2c[nH]c3ccccc23)NC(=O)[C@H](CO)NC(=O)[C@@H](CCN)NC(=O)[C@H](CCC(=O)N[C@@H](CCN)C(=O)N[C@H](C(=O)N[C@@H](CN)C(=O)N[C@H]2CCNC(=O)[C@H]([C@@H](C)O)NC(=O)[C@H](CCN)NC(=O)[C@H](CCN)NC(=O)[C@H](CC(C)C)NC(=O)[C@@H](CC(C)C)NC(=O)[C@H](CCN)NC2=O)[C@@H](C)O)NC(=O)[C@H](CCN)NC(=O)[C@H](Cc2ccc(O)cc2)NC(=O)[C@@H](NC(=O)[C@@H](NC(C)=O)C(C)C)CSSC[C@@H](C(=O)N[C@@H](CO)C(N)=O)NC1=O [Ex. 315] (I: Ac-VCY[Dab]E[dDab]SWSICS-NH2 / II: [Dab]T[Dap][Dab][Dab][dL]L[Dab][Dab]T; disulfide I:2-I:11; amide I:5-II:N; lactam II:4-II:C) | 0.0625 (≈ 0.0259 µM) | – | 0.125 (≈ 0.0518 µM) | 0.0625 (≈ 0.0259 µM) | – | 0.0625 (≈ 0.0259 µM) | – | – | 2 | 0.01562 | 0.01562 | 0.0625 | 0.0625
